By IC50 is commonly meant the concentration that gives 50% inhibition. A low value points to higher potency.

The target of the test is acetylcholinesterase (AChE) (Electrophorus electricus, UniProt O42275). The test is described as follows: colorimetric AChE inhibition assay. The test is classed as biochemical.
Chain of acetylcholinesterase (AChE) (O42275 24-633): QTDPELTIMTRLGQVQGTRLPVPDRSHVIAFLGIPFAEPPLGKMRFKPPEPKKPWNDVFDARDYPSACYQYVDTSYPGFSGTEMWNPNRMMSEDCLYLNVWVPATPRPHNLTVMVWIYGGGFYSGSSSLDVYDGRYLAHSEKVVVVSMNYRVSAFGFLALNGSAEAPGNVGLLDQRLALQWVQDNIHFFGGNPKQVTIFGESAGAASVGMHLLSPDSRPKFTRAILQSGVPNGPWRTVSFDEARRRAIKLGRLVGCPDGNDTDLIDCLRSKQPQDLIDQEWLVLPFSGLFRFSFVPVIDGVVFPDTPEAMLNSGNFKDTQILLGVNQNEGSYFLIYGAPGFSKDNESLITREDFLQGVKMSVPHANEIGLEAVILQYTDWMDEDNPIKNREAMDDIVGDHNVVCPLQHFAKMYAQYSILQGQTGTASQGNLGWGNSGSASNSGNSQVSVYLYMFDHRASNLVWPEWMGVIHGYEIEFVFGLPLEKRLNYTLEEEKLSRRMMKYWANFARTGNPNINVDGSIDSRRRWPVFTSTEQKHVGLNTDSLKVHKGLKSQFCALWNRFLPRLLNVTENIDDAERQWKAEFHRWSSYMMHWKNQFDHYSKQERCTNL

On to `O=C([C@@H](F)[C@H](F)CCc1ccc2c(c1)OCO2)N1CCCCC1` [compound 2, analog 2], for which the IC50 was 51.7 µM.

For the origin of these results see paper PMC7607426, “Vicinal difluorination as a C=C surrogate: an analog of piperine with enhanced solubility, photostability, and acetylcholinesterase inhibitory activity” (Beilstein Journal of Organic Chemistry, 2020).
